Data set [1] can be described thus: in vitro transdermal flux of fenoldopam through human epidermis. The format is in vitro ADME. From the text: The resulting mix was then calendered to a 5 mil thickness between 2 release liners. The drug reservoir was then heat laminated to a Medpar® backing on one surface and a 3M acrylate adhesive on the other. Circular systems were cut with a stainless steel punch.
The release liner of the matrix system was then removed and each system had its exposed edges masked. The systems were then mounted on a Teflon® holder of a release rate rod using nylon mesh and nickel wire. A known volume of receptor solution (30 ml 0.01 M phosphate buffer solution at pH 2.5) was then placed in a test tube and equilibrated at 35° C. The test tube was placed in a water bath and maintained at 35° C. The Teflon rod with attached system was then reciprocated within the test tube by attaching the rod to a motor which caused constant vertical mixing.
At given time intervals, the entire receptor solution was removed from the test tubes and replaced with an equal volume of fresh receptor solutions previously equilibrated at 35° C. […] From the drug concentration and the volume of the receptor solutions, the area of the system and the time interval, the release rate of the drug from the system was calculated as follows: (drug concentration X volume of receptor)/(area x time) =release rate (μg/cm^2·hr).
Transdermal systems set forth in Table 1 were prepared according to Example 1 and used to measure permeation through human cadaver skin. […] The edges of epidermis were then folded around the system so that none of the system edge was exposed to the receptor solution. […] The receptor compartment was filled with a known volume of 0.01 M KH2PO4/K2HPO4 which was adjusted to pH 2.5 with 10% H3PO4 buffer solution previously equilibrated at 35° C.
Transdermal systems set forth in Table 2 were prepared according to the procedure set forth in Example 1 and used to measure permeation through human cadaver skin. […] The edges of epidermis were then folded around the system so that none of the system edge was exposed to the receptor solution. […] The receptor compartment was filled with a known volume of 0.01 M KH2PO4/K2HPO4 which was adjusted to pH 2.5 with 10% H3PO4 buffer solution previously equilibrated at 35° C.

The conditions of data set [2]: in vivo; cited from earlier work.
For data set [3] the following is noted: mild to moderate hypertensive patients; cited from earlier work.
For data set [4] the following is noted: oral administration; cited from earlier work.

SMILES strings stand for the structures. Counter-ions that a name gives are not always drawn.

Take `Oc1ccc(C2CNCCc3c2cc(O)c(O)c3Cl)cc1` (stereo not shown) [fenoldopam base]: in data set [1], the “lag period on transdermal administration” value is “long lag period”. In addition, the “permeability through the skin, formulations of base compared to formulations of salts” value in data set [1] (in general, compared to salts such as fenoldopam mesylate) is recorded as “more permeable through the skin”.

Regarding `Oc1ccc(C2CNCCc3c2cc(O)c(O)c3Cl)cc1` (stereo not shown) [fenoldopam mesylate], the “lag period on transdermal administration” value in data set [1] is recorded as “did not exhibit the long lag period”. Also, in data set [1] (myristyl sarcosine as permeation enhancer), the “transdermal flux compared to formulations of the base” value is “higher transdermal fluxes”.

Take `Oc1ccc(C2CNCCc3c2cc(O)c(O)c3Cl)cc1` (stereo not shown) [fenoldopam, 6-Chloro-2,3,4,5-tetrahydro-1-(4-hydroxyphenol)-1H-3-benzapine-7,8 diol]: the “effect on systolic and diastolic blood pressure” value in data set [2] is “dose-dependent reduction in systolic and diastolic blood pressure”. For the same molecule, the elimination half-life entry in data set [3] was “about 5 minutes”. Further, in data set [4], the clinical benefit result was “does not provide any clinical benefit”.
